Experimental data as given in patent US7935366B2 (priority 2006, dated 2011).
Read-outs that look alike come from different tables or passages of the source.

Assays:
[1] = format: in vivo; details: 24 h post ip. ^131I; stable iodine given 2 h post ^131I
[2] = format: in vivo; details: rats; 24 h post oral ^131I; stable iodide equivalent to 100 mg/70 Kg adult given orally 2 h post ^131I
[3] = format: in vivo; details: stable iodine equivalent to 100 mg/70 Kg adult per day administered orally, 2 h post i.p. ^131I
[4] = format: in vivo; details: stable iodine equivalent to 100 mg/70 Kg adult per day mixed with diet, 2 h post i.p. ^131I
[5] = system: rat bone marrow erythrocytes; format: in vivo; details: FIG. 2
From the text: […]. The geno-toxicity assessment of [CaK2Fe(CN)6] and Prussian Blue for the formation of micronuclei (i.e. part of parent nucleus, which is left behind in the cytoplasm as a daughter nuclei, due to damage to chromosomes during cell division).

[6] = system: DNA damage; details: FIG. 3
[7] = Whole body retention of ^137Cs, CKF vs Prussian Blue; format: in vivo
[8] = some subjects; cited from earlier work
[9] = experimental animals
[10] = Percent binding capacity of *Cs at different pH; format: physicochemical

For `[K+].[O-][I+2]([O-])[O-]` [KIO3], the “Percent ^131I WBR” value [1] was 40 ± 2%, the “Percent ^131I in BLOOD” value [1] was 1.6 ± 0.4% and the “Percent ^131I in CARCAS” value [1] was 17 ± 2%. For the same compound, the “Percent ^131I in EXCRETA” value [1] was 64 ± 5%, the “Percent ^131I in LIVER + GUT” value [1] was 16 ± 1% and the “Percent ^131I in THYROID” value [1] was 10 ± 1%. For the same compound, the “Percent ^131I WBR” value [2] was 14 ± 3 percent administered dose, the “Percent ^131I in BLOOD” value [2] was 0.6 ± 0.05 percent administered dose and the “Percent ^131I in CARCAS” value [2] was 8 ± 0.5 percent administered dose. The “Percent ^131I in EXCRETA” value [2] was 81 ± 1 percent administered dose, the “Percent ^131I in LIVER + GUT” value [2] was 7 ± 0.5 percent administered dose and the “Percent ^131I in THYROID” value [2] was 4 ± 0.5 percent administered dose. The “WHOLE BODY RETENTION OF RADIO-IODINE” value ([3]; day 1) was 28 ± 4, the “WHOLE BODY RETENTION OF RADIO-IODINE” value ([3]; day 2) was 12 ± 2 and the “WHOLE BODY RETENTION OF RADIO-IODINE” value ([3]; day 3) was 10 ± 3. The “WHOLE BODY RETENTION OF RADIO-IODINE” value ([3]; day 4) was 8 ± 1, the “WHOLE BODY RETENTION OF RADIO-IODINE” value ([3]; day 5) was 7 ± 2 and the “WHOLE BODY RETENTION OF RADIO-IODINE” value ([3]; day 6) was 7 ± 4. The “WHOLE BODY RETENTION OF RADIO-IODINE” value ([3]; day 7) was 8 ± 2, the “WHOLE BODY RETENTION OF RADIO-IODINE” value ([3]; day 9) was 6 ± 2 and the “WHOLE BODY RETENTION OF RADIO-IODINE” value ([4]; day 1) was 28 ± 3. For the same compound, the “WHOLE BODY RETENTION OF RADIO-IODINE” value ([4]; day 2) was 12 ± 2, the “WHOLE BODY RETENTION OF RADIO-IODINE” value ([4]; day 3) was 10 ± 4 and the “WHOLE BODY RETENTION OF RADIO-IODINE” value ([4]; day 4) was 8 ± 2. The “WHOLE BODY RETENTION OF RADIO-IODINE” value ([4]; day 5) was 7 ± 3, the “WHOLE BODY RETENTION OF RADIO-IODINE” value ([4]; day 6) was 7 ± 1 and the “WHOLE BODY RETENTION OF RADIO-IODINE” value ([4]; day 7) was 8 ± 2. The “WHOLE BODY RETENTION OF RADIO-IODINE” value ([4]; day 9) was 6 ± 3, the “WHOLE BODY RETENTION OF RADIO-IODINE” value ([4]; day 10) was 3 ± 4 and the “WHOLE BODY RETENTION OF RADIO-IODINE” value ([4]; day 11) was 2 ± 1. The “WHOLE BODY RETENTION OF RADIO-IODINE” value ([4]; day 13) was 2 ± 2 and the “WHOLE BODY RETENTION OF RADIO-IODINE” value ([4]; day 14) was 1 ± 1.
For `[C-]#N.[C-]#N.[C-]#N.[C-]#N.[C-]#N.[C-]#N.[C-]#N.[C-]#N.[C-]#N.[C-]#N.[C-]#N.[C-]#N.[C-]#N.[C-]#N.[C-]#N.[C-]#N.[C-]#N.[C-]#N.[Fe+2].[Fe+2].[Fe+2].[Fe+3].[Fe+3].[Fe+3].[Fe+3]` [PB, ferric hexa-cyanoferrate (II)], the “micronuclei formation, means±SE versus control” value ([5]; all the tested doses) was “not significantly different from control”, the “geno-toxicity, micronuclei formation” value ([5]; dose of 5 mg/100 g BW (equivalent to 3.5 g/d/70 Kg adult)) was “did not induce any toxicity” and the “geno-toxicity, micronuclei formation” value ([5]; five and ten times the dose of 5 mg/100 g BW) was “marginal increase in the formation of micronuclei”. The “DNA damage in alkaline comet assay” value [6] was “do not induce any apparent DNA damage”, the “WHOLE BODY RETENTION - ^137Cs” value ([7]; day 0) was 100 percent administered dose and the “WHOLE BODY RETENTION - ^137Cs” value ([7]; day 1) was 61 ± 10 percent administered dose. For the same compound, the “WHOLE BODY RETENTION - ^137Cs” value ([7]; day 4) was 31 ± 4 percent administered dose, the “WHOLE BODY RETENTION - ^137Cs” value ([7]; day 8) was 21 ± 3 percent administered dose and the “WHOLE BODY RETENTION - ^137Cs” value ([7]; day 12) was 15 ± 2 percent administered dose. The “WHOLE BODY RETENTION - ^137Cs” value ([7]; day 16) was 11 ± 2 percent administered dose, the “WHOLE BODY RETENTION - ^137Cs” value ([7]; day 20) was 7 ± 1 percent administered dose and the “WHOLE BODY RETENTION - ^137Cs” value ([7]; day 24) was 6 ± 1 percent administered dose. For the same compound, the “WHOLE BODY RETENTION - ^137Cs” value ([7]; day 28) was 5 ± 1 percent administered dose, the “speed of removing *Cs from in vivo system” value ([7]; experimental animals) was “slow” and the constipation [8] was “induce constipation in some subjects”. For the same compound, the “gastro-intestinal and cardio-toxicity (histo-pathologic changes)” value [9] was “induces gastro-intestinal and cardio-toxicity”, the “binding with *Cs” value ([10]; FIG. 4, neutral pH) was “weaker binding” and the “PERCENT BINDING CAPACITY of *Cs” value ([10]; pH 2) was 27 ± 2%. For the same compound, the “PERCENT BINDING CAPACITY of *Cs” value ([10]; pH 3) was 58 ± 0.7%, the “PERCENT BINDING CAPACITY of *Cs” value ([10]; pH 4) was 75 ± 0.4% and the “PERCENT BINDING CAPACITY of *Cs” value ([10]; pH 5) was 75 ± 0.3%. The “PERCENT BINDING CAPACITY of *Cs” value ([10]; pH 6) was 67 ± 0.6% and the “PERCENT BINDING CAPACITY of *Cs” value ([10]; pH 7) was 59 ± 0.9%.
